Columns and labels:
[1] = system: Collagen-Induced Arthritis (CIA); experiment: Collagen-Induced Arthritis, EE vs. TG (Example 2): clinical arthritis severity and incidence; format: in vivo, Male DBA/1O1aHsd mice; conditions: for incidence of disease: day 45
From the text: The anti-arthritic activity of DHA, DHA/DPAn6 and DHA/EPA, administered as EE or triglyceride oils (TG), in a chronic mouse model of inflammation, Collagen-Induced Arthritis (CIA), was studied. Methods used in this study were similar to those described in Example 1 (CIA-EE Study). Study groups consisted of: Male DBA/1O1aHsd mice were enrolled, quarantined, and feed study diets following the protocols described in Example 1 (CIA-EE Study). EE and TG oils were blended into the base diet to provide 2500 mg/kg PUFA per day (HED approximately 12 g/day). A single dose of PUFA per day (HED approximately 5 g/day). The 1000 mg/kg DHA-EE dose was equivalent to the amount of DHA administered in the DHA/EPA-EE blend. The fat blend the 2500 mg/kg EE diets consisted of approximately: 1 part flax, 12 parts HCOC and 23 parts HO-SAFF; 1000 mg/kg EE diet: 1 part flax, 12 parts HCOC and 32 parts HO-SAFF; 2500 mg/kg DHASCO® oil diet: 1 part flax, 8 parts HCOC, 17 parts HO-SAFF and 15 parts soybean oil; 2500 mg/kg DHA-S oil diet: 1 part flax, 5 parts HCOC, 16 parts HO-SAFF and 6 parts soybean oil. 2500 mg/kg DHA/EPA (Nordic Naturals fish oil) diet: 1 part flax, 21 parts HCOC, 18 parts HO-SAFF and 13 parts soybean oil. The monounsaturate control animals received a fat blend of 1 part flax, 7 parts HCOC and 25 parts HO-SAFF. All study diets provided a total of 7% fat. Animals in the No Disease control and Dexamethasone groups were fed the diet containing OA-EE. Mice received collagen injections on day 0 and day 21, as described previously. Blood samples were collected at day 21 and day 45. At day 45, joints were collected for histology and pathology. Data was analyzed and compared by one-way ANOVA using the Bonferroni post-test to compare treatment groups to respective placebo control and to make comparisons between treatment groups (GraphPad, Prism, Version 4.0). Effects were considered to be statistically significant at p<0.05. Arthritis severity was assessed from day 18 to 45; a score of 0 represented an animal devoid of clinical arthritis symptoms and a score of 5 represented advanced clinical arthritis. Scores from 0-5 (most severe) were assigned to each digit on the fore and hind limbs based on erythema, swelling and mobility the mean arthritis severity per animal was determined.

[2] = system: Collagen-Induced Arthritis (CIA); experiment: Collagen-Induced Arthritis, ethyl esters (CIA-EE, Example 1): clinical arthritis severity and incidence; format: in vivo, Male DBA/1O1aHsd mice; conditions: for arthritis severity score / arthritis severity score as area under the curve (AUC): days 18-45; for arthritis severity score as area under the curve (AUC): FIG. 2
From the text: The anti-arthritic activity of DHA, DPAn6, DHA/DPAn6 (DHA S-oil ratio) and DHA/EPA (fish oil ratio) ethyl esters (EE) in a chronic mouse model of inflammation, Collagen-Induced Arthritis (CIA), was studied.
Male DBA/1O1aHsd mice (3.5-4 weeks of age) were randomized by weight and enrolled in the study after a three day quarantine in which animals were fed the AlN-93G diet with a modified base fat: 1 part flax seed oil (flax), 9 parts hydrogenated coconut oil (HCOC) and 21 parts high-oleic safflower oil (HO-SAFF). 15 animals were enrolled per study group, with the exception of the No Disease control that had 4 animals. Study groups consisted of:
The appropriate ethyl esters were blended into the base diet to provide approximately 2500 and 5000 mg/kg polyunsaturated fatty acid (PUFA) per day. The human equivalent doses (HED) were approximately 12 g/day and 22 g/day, respectively. The 2500 mg/kg EE diets contained the following fat blend: 1 part flax, 12 parts HCOC and 23 parts HO-SAFF. The 5000 mg/kg EE diets contained a fat blend consisting of: 1 part flax, 5 parts HCOC and 20 parts HO-SAFF. All study diets provided a total of 7% fat. Animals were fed study diets for approximately 30 days prior to the first collagen injection at day 0 and remained on the diets until study termination (day 45). Animals in the No Disease control and Dexamethasone groups were fed the diet containing OA-EE. Following a second collagen injection on day 21, arthritis severity was scored daily. Blood samples were collected at day 21 and day 45. Joints, 6 per an animal, were collected for histology and pathology on day 45.
Data was analyzed and compared by one-way ANOVA using the Bonferroni post-test to compare treatment groups to respective placebo control and to make comparisons between treatment groups (GraphPad, Prism, Version 4.0). Effects were considered to be statistically significant at p<0.05.
Arthritis severity was assessed from day 18 to 45; a score of 0 represented an animal devoid of clinical arthritis symptoms and a score of 5 represented advanced clinical arthritis. Scores from 0-5 (most severe) were assigned to each digit on the fore and hind limbs based on erythema, swelling and mobility and the mean arthritis severity per animal was determined.
The incidence of disease was reduced in animals treated with DHA-EE (FIG. 3A/B). A clinical arthritis score greater than 0 was considered diseased. The incidence of disease at day 45 was 13% in animals treated with 2500 mg/kg DHA-EE, as compared to 100% disease incidence in OA-EE (placebo) control animals.

CC/C=C\C/C=C\C/C=C\C/C=C\C/C=C\C/C=C\CCC(=O)OCC [DHA-EE]
arthritis severity score as area under the curve (AUC) ([1]; 1000 mg/kg, days 18-45, vs OA-EE (placebo) control, FIG. 8B): significantly reduced arthritis
arthritis severity, comparison between treatment groups ([1]; 2500 mg/kg PUFA, Dexamethasone 0.1 mg/kg): more potent than DHA-EPA-EE
arthritis severity score as area under the curve (AUC) ([1]; 2500 mg/kg PUFA, days 18-45, vs monounsaturated or OA-EE (placebo) control, FIG. 8A/B): significantly reduced arthritis
incidence of disease ([1]; 1000 mg/kg, FIG. 9B): 73%
incidence of disease ([1]; 2500 mg/kg PUFA, FIG. 9A/B): 60%
arthritis severity score ([1]; days 18-45, FIG. 7A/B, dose not stated): reduced arthritis severity
arthritis severity score ([2]; 2500 mg/kg in diet, FIG. 1A): reduced arthritis severity
arthritis severity score as area under the curve (AUC) ([2]; 2500 mg/kg, vs 2500 mg/kg OA-EE (placebo) control): significantly reduced arthritis severity
arthritis severity, comparison between treatment groups ([2]; 5000 mg/kg): more potent than DHA/EPA-EE
arthritis severity score ([2]; 5000 mg/kg in diet, FIG. 1B): reduced arthritis severity
arthritis severity score as area under the curve (AUC) ([2]; 5000 mg/kg, vs 5000 mg/kg OA-EE (placebo) control): significantly reduced arthritis severity
incidence of disease (clinical arthritis score greater than 0) ([2]; day 45, 2500 mg/kg, FIG. 3A): 13%
arthritis severity, comparison with dexamethasone ([2]; dose not stated in sentence (2500 and 5000 mg/kg tested), dexamethasone 0.1 mg/kg): as effective as dexamethasone
